The values below come from patent publication US20160304557A1, “Method for preventing or treating heart diseases by using a composition containing an isolated peptide” (Tunghai University, priority 2014, published 2016).

Assay [1] deals with JNK. In words: Western blot of JNK in heart tissue of high-fat diet mice. It counts as in vivo, C57BL/6 mice. The conditions noted are these: groups 3 to 5 (5, 10, 25 mg/kg/day intraperitoneally) versus group 2. How it is done:
(§1) The male C57BL/6 mice at the age of 6 weeks were divided into 5 groups for 8 mice in each group. The each group of mice were feed at 24±2° C. of temperature, humidity of 55±10% and 12/12 light cycle for 8 weeks, wherein the group 1 was control group on a normal diet (PMI Nutrition International, Brentwood, Mo., USA) and injected 0.9% saline intraperitoneally; the group 2 was fed high-fat diet to induce the mice into heart hypertrophy model and injected 0.9% saline intraperitoneally; the group 3 was fed high-fat diet and the peptide of SEQ ID NO.:1 was injected intraperitoneally with the dose of 5 mg/kg/day; the group 4 was fed high-fat diet and the peptide of SEQ ID NO.:1 was injected intraperitoneally with the dose of 10 mg/kg/day; the group 5 was fed high-fat diet and the peptide of SEQ ID NO.:1 was injected intraperitoneally with the dose of 25 mg/kg/day. […]
(§2) Protein concentration of the extract was determined by Lowry's protein assay method. […]
(§3) The protein extraction of the mice heart tissues from the each group in example 2 were processed by the western blot method in example 3 to observe the expressions of p38α protein and JNK. The results were shown at FIGS. 8 and 9, wherein the tubulin was used for an internal control in FIG. 8 and the expression levels of p38α protein and JNK were calculated basing on the expression level of tubulin in each figure of FIG. 9.
On the technique in general: Immunoblotting shows a protein as a band on a membrane.

For assay [2], the system named is p38α protein. In words: Western blot of p38α protein in heart tissue of high-fat diet mice. In kind it is in vivo, C57BL/6 mice. The conditions noted are these: groups 3 to 5 (5, 10, 25 mg/kg/day intraperitoneally) versus group 2. On the procedure: as §1, §2, §3
The subject of assay [3] is STAT-3, IL-6, MEK-5 and ERK-5. In words: Western blot of related signal transduction proteins of heart hypertrophy in heart tissue of high-fat diet mice. It counts as in vivo, C57BL/6 mice. To be noted: STAT-3, IL-6, MEK-5, ERK-5, groups 3 to 5 (5, 10, 25 mg/kg/day intraperitoneally) versus group 2. On the procedure: (§4) The male C57BL/6 mice at the age of 6 weeks were divided into 5 groups for 8 mice in each group. […]
as §2
The protein extraction of the mice heart tissues from the each group in example 2 were processed by the western blot method in example 3 to observe the expressions of the related signal transduction proteins of heart hypertrophy including: STAT-3, IL-6, MEK-5 and ERK-5. The results were shown at FIGS. 6 and 7, wherein the tubulin was used for an internal control in FIG. 6 and the expression levels of the related signal transduction proteins of heart hypertrophy in the mice heart tissues from each group was calculated basing on the expression level of tubulin in FIG. 7.

For assay [4], the system named is FGF-2, ERK-1, UPA, MMP-2 and MMP-9. In words: Western blot of related proteins of cardiac fibrosis pathway in heart tissue of high-fat diet mice. It counts as in vivo, C57BL/6 mice. The conditions noted are these: MMP-2, MMP-9, groups 3 to 5 (5, 10, 25 mg/kg/day intraperitoneally) versus group 2. How it is done: as §4, §2
The protein extraction of the mice heart tissues from the each group in example 2 were processed by the western blot method in example 3 to observe the expressions of the related proteins of cardiac fibrosis pathway including: FGF-2, ERK-1, UPA, MMP-2 and MMP-9. The results were shown at FIGS. 10 and 11, wherein the tubulin was used for an internal control in FIG. 10 and the expression levels of FGF-2, ERK-1, UPA, MMP-2 and MMP-9 in the mice heart tissues from the each group was calculated basing on the expression level of tubulin in each figures of FIG. 11.

For assay [5], the system named is caspase-3. In words: Western blot of activated caspase-3 in heart tissue of high-fat diet mice. In kind it is in vivo, C57BL/6 mice. The conditions noted are these: groups 3 to 5 (5, 10, 25 mg/kg/day intraperitoneally) in comparison of group 2. On the procedure:
as §4, §2
(§5) The protein extraction of the mice heart tissues from the each group in example 2 were processed by the western blot method in example 3 to observe the expressions of related apoptosis regulatory proteins in the mice heart tissues from the each group. The results were shown at FIGS. 2 and 3, wherein the tubulin was used for an internal control in FIG. 2 and the expression levels of related apoptosis regulatory proteins were calculated basing on the expression level of tubulin in each figure of FIG. 3.

The subject of assay [6] is myocardial cells. In words: H&E stained section of heart tissues of high-fat diet mice. The conditions noted are these: groups 3 and 4 (15 and 25 mg/kg/day intraperitoneally) in comparison with group 2. It counts as in vivo. On the procedure:
The male C57BL/6 mice at the age of 6 weeks were divided into 5 groups for 8 mice in each group. The each group of mice were feed at 24±2° C. of temperature, humidity of 55±10% and 12/12 light cycle for 8 weeks, wherein the group 1 was control group on a normal diet (PMI Nutrition International, Brentwood, Mo., USA) and injected 0.9% saline intraperitoneally; the group 2 was fed high-fat diet to induce the mice into heart hypertrophy model and injected 0.9% saline intraperitoneally; the group 3 was fed high-fat diet and the peptide of SEQ ID NO.:1 was injected intraperitoneally with the dose of 5 mg/kg/day; the group 4 was fed high-fat diet and the peptide of SEQ ID NO.:1 was injected intraperitoneally with the dose of 10 mg/kg/day; the group 5 was fed high-fat diet and the peptide of SEQ ID NO.:1 was injected intraperitoneally with the dose of 25 mg/kg/day. The injection period of each group of mice was between the third week to the sixth week of feeding period. The high-fat diet contained 60% of energy as fat.
The feeding method was the same with example 1. Mice were divided into 4 groups for feeding at different conditions. The intraperitoneal injection was performed between the third week and the sixth week of the feeding period. […]

Assay [7] has as its system BNP. In words: Western blot of BNP in heart tissue of high-fat diet mice. In kind it is in vivo, C57BL/6 mice. To be noted: groups 3 to 5 (5, 10, 25 mg/kg/day intraperitoneally) in comparison of group 2. How it is done:
as §4, §2
(§6) The protein extraction of the mice heart tissues from the each group in example 2 were processed by the western blot method in example 3 to observe the expressions of the indicator of heart hypertrophy and heart failure. The results were shown at FIGS. 12 and 13, wherein the tubulin was used for an internal control in FIG. 12 and the expression levels of the ANP and BNP in the mice heart tissues from the each group was calculated basing on the expression level of tubulin in each figures of FIG. 13.

Assay [8] relates to cytochrome C. In words: Western blot of cytochrome C in heart tissue of high-fat diet mice. It counts as in vivo, C57BL/6 mice. The conditions noted are these: groups 3 to 5 (5, 10, 25 mg/kg/day intraperitoneally) in comparison of group 2. On the procedure:
as §4, §2, §5

Assay [9] concerns calcineurin. In words: Western blot of calcineurin in heart tissue of high-fat diet mice. It counts as in vivo, C57BL/6 mice. The conditions noted are these: groups 3 to 5 (5, 10, 25 mg/kg/day intraperitoneally) in comparison of group 2. On the procedure:
as §4, §2
(§7) The protein extraction of the mice heart tissues from the each group in example 2 were processed by the western blot method in example 3 to observe the expressions of nuclear factor of activated T-cells C3 (NFTA-C3) and calcineurin in the mice heart tissues from the each group. The results were shown at FIGS. 4 and 5, wherein the tubulin was used for an internal control in FIG. 4 and the expression levels of NFTA-C3 and calcineurin were calculated basing on the expression level of tubulin in each figure of FIG. 5.

Assay [10] relates to Bcl-2 protein. In words: Western blot of Bcl-2 in heart tissue of high-fat diet mice. To be noted: groups 3 to 5 (5, 10, 25 mg/kg/day intraperitoneally) in comparison of group 2 (high-fat diet, saline). It counts as in vivo, C57BL/6 mice. On the procedure: as §4, §2, §5
The test system of assay [11] is nuclear factor of activated T-cells C3 (NFTA-C3). In words: Western blot of NFTA-C3 in heart tissue of high-fat diet mice. The conditions noted are these: groups 3 to 5 (5, 10, 25 mg/kg/day intraperitoneally) in comparison of group 2. In kind it is in vivo, C57BL/6 mice. How it is done:
as §4, §2, §7

Assay [12] has as its system ANP. In words: Western blot of ANP in heart tissue of high-fat diet mice. In kind it is in vivo, C57BL/6 mice. To be noted: groups 3 to 5 (5, 10, 25 mg/kg/day intraperitoneally) in comparison of group 2. On the procedure: as §4, §2, §6

As for “SEQ ID NO.: 1: isolated peptide which amino acid sequence is SEQ ID NO.: 1; extracted from organisms, separated by hydrolysis or chemical synthesis (VHVV)”, the “expression levels of JNK in the heart cells” value in [1] was “significantly lower”. The “expression levels of p38α protein in the heart cells” value in assay [2] is on record as “significantly lower”. In addition, the “expression levels of the related signal transduction proteins of heart hypertrophy in the heart tissues” value in assay [3] is recorded as “obviously lower”. Further, the “related proteins of cardiac fibrosis pathway in mice heart tissues” value in assay [4] was “obviously lower”. Moreover, in [5], the “expression levels of activated caspase-3 in the heart cell” value is on record as “obviously decreased”. For the same substance, the “arrangement of myocardial cells (H&E stained heart sections)” value in [6] is “more orderly and closely”. For the same substance, the “expression levels of BNP in the heart tissues” value in [7] was “obviously decreased”. The “expression levels of cytochrome C in the heart cell” value in assay [8] is “obviously decreased”. For the same substance, in assay [9], the “expression levels of calcineurin in the heart cells” value is listed as “obviously decreased”. Besides, in assay [10], the “expression levels of Bcl-2 in the heart cell” value was “obviously increased”. In [11], the “expression levels of NFTA-C3 in the heart cells” value is “obviously decreased”. Moreover, the “expression levels of ANP in the heart tissues” value in [12] is listed as “obviously decreased”.
